Laboratory results from patent US8318736B2, “HIV inhibiting 5,6-substituted pyrimidines” (Janssen R&D Ireland, priority 2006, dated 2012).

Key:
HIV strain L100I + K103N = experiment: microbe, parasite or virus in culture; type: cell-based, HIV-1; conditions: Human immunodeficiency virus 1, 72 h, read-out: L100I + K103N pEC50 (-log EC50) (converted)
Excerpt: (§1) Image analysis allowed very sensitive detection of viral infection.

HIV strain K103N + Y181C [1] = experiment: microbe, parasite or virus in culture; type: cell-based, HIV-1; conditions: Human immunodeficiency virus 1, 72 h, read-out: K103N + Y181C pEC50 (-log EC50) (converted)
Experimental: (§2) The ratio of CC50 to EC50 is defined as the selectivity index (SI) and is an indication of the selectivity of the anti-HIV activity of the inhibitor. The ultimate monitoring of HIV-1 infection and cytotoxicity was done using a scanning microscope. Image analysis allowed very sensitive detection of viral infection. Measurements were done before cell necrosis, which usually takes place about five days after infection, in particular measurements were performed three days after infection.

[2] = test system: HIV strain IIIB (wild type); experiment: microbe, parasite or virus in culture; conditions: for EC50: Human immunodeficiency virus 1, IIIB, 72 h, read-out: IIIB pEC50 (-log EC50) (converted); for pSI (IIIB) (-log SI; SI = ratio of CC50 to EC50): strain IIIB, CC50 in mock-infected MT4 CMV-EGFP cells
Experimental: Compounds of the invention were tested for their potency against wild type virus and clinically isolated HIV strains harboring one or more mutations associated with resistance to reverse transcriptase inhibitors. Antiviral activity was evaluated using a cellular assay performed according to the following procedure.
The human T-cell line MT4 was engineered with Green Fluorescent Protein (GFP) and a HIV-specific promoter, HIV-1 long terminal repeat (LTR). This cell line, designated MT4 LTR-EGFP, can be used for the in vitro evaluation of anti-HIV activity of investigational compounds. In HIV-1 infected cells, the Tat protein is produced, which upregulates the LTR promotor and eventually leads to stimulation of the GFP reporter production, allowing to measure ongoing HIV-infection fluorometrically.
Analogously, MT4 cells were engineered with GFP and the constitutional cytomegalovirus (CMV) promotor. This cell line was designated MT4 CMV-EGFP, and can be used for the in vitro evaluation of cytotoxicity of investigational compounds. […] Cytotoxic investigational compounds reduce GFP levels of mock-infected MT4 CMV-EGFP cells.
The ratio of CC50 to EC50 is defined as the selectivity index (SI) and is an indication of the selectivity of the anti-HIV activity of the inhibitor. The ultimate monitoring of HIV-1 infection and cytotoxicity was done using a scanning microscope. […] Measurements were done before cell necrosis, which usually takes place about five days after infection, in particular measurements were performed three days after infection.
The columns IIIB, L100I, etc. in the table list the pEC50 (−log EC50) values against various strains IIIB, L100I, etc.; pSI lists the −log SI values.
Strain IIIB is wild type HIV strain.

[3] = test system: HIV strain MDR (L100I, K103N, Y181C, E138G, V1791, L2214F, V278V/I and A327A/V in HIV reverse transcriptase); experiment: microbe, parasite or virus in culture; type: cell-based, HIV-1; conditions: Human immunodeficiency virus 1, read-out: MDR pEC50 (-log EC50) (converted)
Excerpt: as §1
“MDR” refers to a strain that contains mutations L100I, K103N, Y181C, E138G, V1791, L2214F, V278V/I and A327A/V in HIV reverse transcriptase.

HIV strain K103N + Y181C [4] = test system: HIV strain K103N + Y181C (second column with this head); experiment: microbe, parasite or virus in culture; type: cell-based, HIV-1; conditions: Human immunodeficiency virus 1, 72 h, read-out: K103N + Y181C pEC50 (-log EC50) (converted)
Experimental: as §2

Row | SMILES | EC50 (HIV strain L100I + K103N) | EC50 (HIV strain K103N + Y181C [1]) | EC50 [2] | pSI (IIIB) (-log SI; SI = ratio of CC50 to EC50) [2] | melting point | EC50 [3] | EC50 (HIV strain K103N + Y181C [4])
1 | COCc1nc(Nc2ccc(C#N)cc2)nc(Nc2c(C)cc(/C=C/C#N)cc2C)c1-c1cnccc1OC [Compound 1] | 63.1 nM | 93.3 nM | 12.9 nM | >3.28 | 120 °C | 2400 nM | 83.2 nM
2 | COCc1nc(Nc2ccc(C#N)cc2)nc(Nc2c(C)cc(/C=C/C#N)cc2C)c1-c1cccnc1 [Compound 2] | 4.17 nM | 21.4 nM | 3.02 nM | 3.65 | 216 °C | 240 nM | 15.8 nM
3 | COCc1nc(Nc2ccc(C#N)cc2)nc(Nc2c(C)cc(/C=C/C#N)cc2C)c1-c1ccncc1 [Compound 3] | 9.33 nM | 29.5 nM | 3.31 nM | >3.88 | 172 °C | 355 nM | 22.4 nM
4 | COCc1nc(Nc2ccc(C#N)cc2)nc(Nc2c(C)cc(/C=C/C#N)cc2C)c1-c1cccs1 [Compound 4] | 3.8 nM | 15.5 nM | 4.57 nM | 3.73 | 130 °C | 138 nM | 18.6 nM
5 | COCc1nc(Nc2ccc(C#N)cc2)nc(Nc2c(C)cc(/C=C/C#N)cc2C)c1-c1ccsc1 [Compound 5] | 5.01 nM | 21.4 nM | 4.37 nM | >3.76 | 125 °C | 324 nM | 25.1 nM
6 | COCc1nc(Nc2ccc(C#N)cc2)nc(Nc2c(C)cc(/C=C/C#N)cc2C)c1-c1ccco1 [Compound 6] | 3.63 nM | 16.6 nM | 3.63 nM | 3.61 | 105 °C | 89.1 nM | 17.4 nM
7 | COCc1nc(Nc2ccc(C#N)cc2)nc(Nc2c(C)cc(/C=C/C#N)cc2C)c1-c1ccoc1 [Compound 7] | 2.4 nM | 12.3 nM | 3.72 nM | 3.75 | 122 °C | 91.2 nM | 12.6 nM
8 | C=CC(O)c1c(COC)nc(Nc2ccc(C#N)cc2)nc1Nc1c(C)cc(/C=C/C#N)cc1C (stereo not shown) [Compound 36] | 3.47 nM | 8.71 nM | 2.63 nM | 3.85 | – | 66.1 nM | 12.6 nM
9 | COCc1nc(Nc2ccc(C#N)cc2)nc(Nc2c(C)cc(/C=C/C#N)cc2C)c1C(C)O (stereo not shown) [Compound 37] | 2.45 nM | 6.03 nM | 1.45 nM | 3.95 | – | 105 nM | 11.5 nM
10 | COCc1nc(Nc2ccc(C#N)cc2)nc(Nc2c(C)cc(/C=C/C#N)cc2C)c1C(O)c1nccs1 (stereo not shown) [Compound 38] | 3.72 nM | 12.3 nM | 2.69 nM | 3.81 | – | 174 nM | 12 nM
